Measured values from ChEMBL document CHEMBL1154180, “Pyrazole-based arylalkyne cathepsin S inhibitors. Part II: optimization of cellular potency” (Bioorg Med Chem Lett, 2009).

What was measured:
[1] = target: T1, Cathepsin S (Homo sapiens, UniProt P25774); experiment: Inhibition of cathepsin S in human JY cells assessed as invariant chain li degradation by Western blotting; assay type: cell-based
[2] = target: T1, Cathepsin S; experiment: Inhibition of human recombinant cathepsin S expressed in baculovirus by FRET assay

T1 sequence (P25774 whole entry): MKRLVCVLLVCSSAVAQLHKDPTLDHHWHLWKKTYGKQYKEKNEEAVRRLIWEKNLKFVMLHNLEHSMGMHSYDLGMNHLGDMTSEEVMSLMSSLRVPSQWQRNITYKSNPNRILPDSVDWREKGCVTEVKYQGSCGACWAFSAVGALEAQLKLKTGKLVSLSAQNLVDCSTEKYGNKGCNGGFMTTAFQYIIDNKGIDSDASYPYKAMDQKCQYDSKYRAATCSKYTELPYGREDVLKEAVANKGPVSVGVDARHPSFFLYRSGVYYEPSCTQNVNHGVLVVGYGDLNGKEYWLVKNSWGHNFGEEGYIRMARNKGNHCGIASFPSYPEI

SMILES	IC50 [1] [nM]	IC50 [2] [nM]
CS(=O)(=O)N1CCc2c(c(-c3ccc(Cl)c(C#Cc4ccc(Cl)cc4)c3)nn2CC(O)CN2CCNCC2)C1 (centres undefined)	> 10000	380
CNCc1ccc(C#Cc2cc(-c3nn(CCCN4CCOCC4)c4c3CN(S(C)(=O)=O)CC4)ccc2Cl)cc1	> 10000	1300
CC(C)(C)OC(=O)N1CCN(CC(O)Cn2nc(-c3ccc(Cl)c(C#Cc4ccc(Cl)cc4)c3)c3c2CCN(S(C)(=O)=O)C3)CC1 (centres undefined)	> 10000	150
CS(=O)(=O)N1CCc2c(c(-c3ccc(Cl)c(C#Cc4ccc(Cl)cc4)c3)nn2CC(O)CN2CCC(C(N)=O)CC2)C1 (centres undefined)	> 10000	
COC(=O)C1CCN(CC(O)Cn2nc(-c3ccc(Cl)c(C#Cc4ccc(Cl)cc4)c3)c3c2CCN(S(C)(=O)=O)C3)CC1 (centres undefined)	> 10000	
CS(=O)(=O)N1CCc2c(c(-c3ccc(Cl)c(C#Cc4ccc(CNS(=O)(=O)c5ccccc5)cc4)c3)nn2CCCN2CCOCC2)C1	> 10000	160
CS(=O)(=O)N1CCc2c(c(-c3ccc(Cl)c(C#Cc4ccc(CNC(=O)c5ccccc5)cc4)c3)nn2CCCN2CCOCC2)C1	> 10000	
CS(=O)(=O)N1CCc2c(c(-c3ccc(Cl)c(C#Cc4ccc(CNCc5ccc(Cl)c(Cl)c5)cc4)c3)nn2CCCN2CCOCC2)C1	1800	
CS(=O)(=O)N1CCc2c(c(-c3ccc(Cl)c(C#Cc4ccc(CN[C@@H](CO)c5ccccc5)cc4)c3)nn2CCCN2CCOCC2)C1	1700	
CS(=O)(=O)N1CCc2c(c(-c3ccc(Cl)c(C#Cc4ccc(CNCCc5ccccc5)cc4)c3)nn2CCCN2CCOCC2)C1	5700	
Cc1ccc(CNCc2ccc(C#Cc3cc(-c4nn(CCCN5CCOCC5)c5c4CN(S(C)(=O)=O)CC5)ccc3Cl)cc2)cc1	1100	
CS(=O)(=O)N1CCc2c(c(-c3ccc(Cl)c(C#Cc4ccc(CNCc5ccc(Cl)cc5)cc4)c3)nn2CCCN2CCOCC2)C1	1500	140
CS(=O)(=O)N1CCc2c(c(-c3ccc(Cl)c(C#Cc4ccc(CNCc5ccccc5)cc4)c3)nn2CCCN2CCOCC2)C1	4200	420
CN(Cc1ccccc1)Cc1ccc(C#Cc2cc(-c3nn(CCCN4CCOCC4)c4c3CN(S(C)(=O)=O)CC4)ccc2Cl)cc1	> 10000	600
COc1ccc(CNCc2ccc(C#Cc3cc(-c4nn(CCCN5CCOCC5)c5c4CN(S(C)(=O)=O)CC5)ccc3Cl)cc2)cc1	820	
COC(=O)[C@@H](NCc1ccc(C#Cc2cc(-c3nn(CCCN4CCOCC4)c4c3CN(S(C)(=O)=O)CC4)ccc2Cl)cc1)c1ccccc1	> 10000	
CS(=O)(=O)N1CCc2c(c(-c3ccc(Cl)c(C#Cc4ccc(Cl)cc4)c3)nn2CC(O)CN2CCOCC2)C1 (centres undefined)	> 10000	140
CS(=O)(=O)N1CCc2c(c(-c3ccc(Cl)c(C#Cc4ccc(Cl)cc4)c3)nn2CC(O)CN2CCCCC2)C1 (centres undefined)	> 10000	
CS(=O)(=O)N1CCc2c(c(-c3ccc(Cl)c(C#Cc4ccc(CN)cc4)c3)nn2CCCN2CCOCC2)C1	10000	490
COC(=O)[C@H](NCc1ccc(C#Cc2cc(-c3nn(CCCN4CCOCC4)c4c3CN(S(C)(=O)=O)CC4)ccc2Cl)cc1)c1ccccc1	> 10000	100
CC(C)(C)OC(=O)N1CCC(C2CCN(C[C@H](O)Cn3nc(-c4ccc(Cl)c(C#Cc5ccc(Cl)cc5)c4)c4c3CCN(S(C)(=O)=O)C4)CC2)CC1	> 10000	
CC(=O)N1CCC(C2CCN(C[C@H](O)Cn3nc(-c4ccc(Cl)c(C#Cc5ccc(Cl)cc5)c4)c4c3CCN(S(C)(=O)=O)C4)CC2)CC1	10000	
CS(=O)(=O)N1CCc2c(c(-c3ccc(Cl)c(C#Cc4ccc(Cl)cc4)c3)nn2C[C@@H](O)CN2CCC(C3CCNCC3)CC2)C1	200	
CN1CCC(C2CCN(C[C@H](O)Cn3nc(-c4ccc(Cl)c(C#Cc5ccc(Cl)cc5)c4)c4c3CCN(S(C)(=O)=O)C4)CC2)CC1	720	
